These results are taken from BindingDB's records for patent US9796704 (SYMPHONY EVOLUTION, INC., 2017).

A word on the IC50: it is the concentration at which inhibition is half-maximal.

Test in all cases: AlphaScreen Assay
A general note: Alpha assays give light when donor and acceptor beads are brought close together.

The target in one assay is Ephrin type-A receptor 2 (Homo sapiens, UniProt P29317).
In a further assay the target is T1, Ephrin type-B receptor 4 (Homo sapiens, UniProt P54760).
T1 sequence (P54760 whole entry): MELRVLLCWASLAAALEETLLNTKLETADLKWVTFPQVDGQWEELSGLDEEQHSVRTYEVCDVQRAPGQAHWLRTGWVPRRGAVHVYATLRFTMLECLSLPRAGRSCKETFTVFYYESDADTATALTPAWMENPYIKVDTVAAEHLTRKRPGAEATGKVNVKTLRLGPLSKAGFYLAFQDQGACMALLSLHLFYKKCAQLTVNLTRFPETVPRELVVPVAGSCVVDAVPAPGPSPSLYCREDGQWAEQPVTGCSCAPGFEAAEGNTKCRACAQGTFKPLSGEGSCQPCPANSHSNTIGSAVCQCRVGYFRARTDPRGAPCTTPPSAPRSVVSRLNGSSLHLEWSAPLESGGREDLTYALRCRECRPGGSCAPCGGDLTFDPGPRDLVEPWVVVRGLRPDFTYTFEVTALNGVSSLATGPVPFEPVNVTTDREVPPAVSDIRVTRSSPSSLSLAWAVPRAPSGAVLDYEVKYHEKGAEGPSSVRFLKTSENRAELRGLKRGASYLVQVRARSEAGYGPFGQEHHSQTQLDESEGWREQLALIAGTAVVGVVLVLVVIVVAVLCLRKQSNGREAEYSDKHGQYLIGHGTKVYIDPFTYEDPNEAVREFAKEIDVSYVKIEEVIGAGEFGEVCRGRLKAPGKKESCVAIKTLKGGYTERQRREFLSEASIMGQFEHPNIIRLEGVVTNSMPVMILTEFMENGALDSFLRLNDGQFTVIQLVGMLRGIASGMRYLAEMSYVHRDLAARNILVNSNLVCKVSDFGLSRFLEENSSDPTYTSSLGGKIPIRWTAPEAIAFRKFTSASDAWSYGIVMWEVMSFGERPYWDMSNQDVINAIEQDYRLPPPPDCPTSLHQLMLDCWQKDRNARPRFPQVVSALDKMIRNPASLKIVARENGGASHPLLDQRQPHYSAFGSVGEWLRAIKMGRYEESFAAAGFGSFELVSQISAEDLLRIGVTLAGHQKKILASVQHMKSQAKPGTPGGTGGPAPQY

For assay [1], the target named is Receptor tyrosine-protein kinase erbB-2 (Homo sapiens, UniProt P04626).
Chain of Receptor tyrosine-protein kinase erbB-2 (P04626 whole entry): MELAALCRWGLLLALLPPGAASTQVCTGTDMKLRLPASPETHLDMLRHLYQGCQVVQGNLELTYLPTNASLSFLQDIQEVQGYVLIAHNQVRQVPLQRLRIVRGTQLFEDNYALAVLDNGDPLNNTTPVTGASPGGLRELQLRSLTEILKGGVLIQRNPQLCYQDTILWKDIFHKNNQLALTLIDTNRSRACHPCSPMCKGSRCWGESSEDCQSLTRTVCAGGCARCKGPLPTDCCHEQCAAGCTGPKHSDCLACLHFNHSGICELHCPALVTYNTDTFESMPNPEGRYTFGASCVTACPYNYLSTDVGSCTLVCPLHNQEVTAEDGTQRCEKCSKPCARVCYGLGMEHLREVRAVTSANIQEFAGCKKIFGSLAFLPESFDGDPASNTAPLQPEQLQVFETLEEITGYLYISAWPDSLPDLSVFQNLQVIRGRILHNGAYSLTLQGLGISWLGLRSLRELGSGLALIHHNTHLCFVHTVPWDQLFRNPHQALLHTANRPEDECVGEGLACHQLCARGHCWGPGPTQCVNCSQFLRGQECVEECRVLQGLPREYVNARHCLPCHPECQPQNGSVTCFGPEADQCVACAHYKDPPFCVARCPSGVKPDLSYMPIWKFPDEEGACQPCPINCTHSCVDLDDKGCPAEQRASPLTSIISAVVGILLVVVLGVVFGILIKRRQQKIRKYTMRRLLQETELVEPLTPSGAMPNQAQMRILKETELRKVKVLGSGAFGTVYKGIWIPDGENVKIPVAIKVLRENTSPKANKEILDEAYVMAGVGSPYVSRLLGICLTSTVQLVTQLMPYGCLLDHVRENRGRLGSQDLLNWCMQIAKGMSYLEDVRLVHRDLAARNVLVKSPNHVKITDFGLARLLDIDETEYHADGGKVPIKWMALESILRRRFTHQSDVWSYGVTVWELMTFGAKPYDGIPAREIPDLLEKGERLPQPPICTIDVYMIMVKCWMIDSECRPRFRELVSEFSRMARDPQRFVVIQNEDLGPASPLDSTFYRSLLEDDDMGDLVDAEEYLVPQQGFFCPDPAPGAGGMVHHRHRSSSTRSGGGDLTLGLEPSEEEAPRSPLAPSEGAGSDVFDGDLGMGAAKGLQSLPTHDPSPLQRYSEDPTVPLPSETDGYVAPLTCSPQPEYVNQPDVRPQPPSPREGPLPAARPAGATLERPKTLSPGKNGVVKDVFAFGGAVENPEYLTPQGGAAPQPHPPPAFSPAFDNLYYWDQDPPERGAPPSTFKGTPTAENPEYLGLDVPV
Procedure: (§1) In AlphaScreen, when the donor and acceptor beads are close in proximity, a series of photochemical events will give rise to a fluorescent signal upon light activation. Here we use biotinylated poly-(Glu, Tyr) 4:1 as the kinase substrate, streptavidin-coated donor beads and anti-phosphortyrosine antibody PY100-coated acceptor beads. […] Compounds, ATP, biotinylated poly-(Glu, Tyr) and kinases are mixed in a volume of 20 μL for 1 hr at ambient temperature using Greiner 384-well white clear bottom medium binding plates. Then 10 uL solution containing 15-30 mg/mL AlphaScreen beads, 75 mM Hepes, pH 7.4, 300 mM NaCl, 120 mM EDTA, 0.3% BSA and 0.03% Tween-20 is added to each well. After 2-16 hr incubation of the beads, plates are read in a Perkin Elmer AlphaQuest reader (available from PerkinElmer Life and Analytical Sciences, Inc., of Boston Mass.).
In assay [2] the target is Vascular endothelial growth factor receptor 2 (Homo sapiens, UniProt P35968).
Chain of Vascular endothelial growth factor receptor 2 (P35968 whole entry): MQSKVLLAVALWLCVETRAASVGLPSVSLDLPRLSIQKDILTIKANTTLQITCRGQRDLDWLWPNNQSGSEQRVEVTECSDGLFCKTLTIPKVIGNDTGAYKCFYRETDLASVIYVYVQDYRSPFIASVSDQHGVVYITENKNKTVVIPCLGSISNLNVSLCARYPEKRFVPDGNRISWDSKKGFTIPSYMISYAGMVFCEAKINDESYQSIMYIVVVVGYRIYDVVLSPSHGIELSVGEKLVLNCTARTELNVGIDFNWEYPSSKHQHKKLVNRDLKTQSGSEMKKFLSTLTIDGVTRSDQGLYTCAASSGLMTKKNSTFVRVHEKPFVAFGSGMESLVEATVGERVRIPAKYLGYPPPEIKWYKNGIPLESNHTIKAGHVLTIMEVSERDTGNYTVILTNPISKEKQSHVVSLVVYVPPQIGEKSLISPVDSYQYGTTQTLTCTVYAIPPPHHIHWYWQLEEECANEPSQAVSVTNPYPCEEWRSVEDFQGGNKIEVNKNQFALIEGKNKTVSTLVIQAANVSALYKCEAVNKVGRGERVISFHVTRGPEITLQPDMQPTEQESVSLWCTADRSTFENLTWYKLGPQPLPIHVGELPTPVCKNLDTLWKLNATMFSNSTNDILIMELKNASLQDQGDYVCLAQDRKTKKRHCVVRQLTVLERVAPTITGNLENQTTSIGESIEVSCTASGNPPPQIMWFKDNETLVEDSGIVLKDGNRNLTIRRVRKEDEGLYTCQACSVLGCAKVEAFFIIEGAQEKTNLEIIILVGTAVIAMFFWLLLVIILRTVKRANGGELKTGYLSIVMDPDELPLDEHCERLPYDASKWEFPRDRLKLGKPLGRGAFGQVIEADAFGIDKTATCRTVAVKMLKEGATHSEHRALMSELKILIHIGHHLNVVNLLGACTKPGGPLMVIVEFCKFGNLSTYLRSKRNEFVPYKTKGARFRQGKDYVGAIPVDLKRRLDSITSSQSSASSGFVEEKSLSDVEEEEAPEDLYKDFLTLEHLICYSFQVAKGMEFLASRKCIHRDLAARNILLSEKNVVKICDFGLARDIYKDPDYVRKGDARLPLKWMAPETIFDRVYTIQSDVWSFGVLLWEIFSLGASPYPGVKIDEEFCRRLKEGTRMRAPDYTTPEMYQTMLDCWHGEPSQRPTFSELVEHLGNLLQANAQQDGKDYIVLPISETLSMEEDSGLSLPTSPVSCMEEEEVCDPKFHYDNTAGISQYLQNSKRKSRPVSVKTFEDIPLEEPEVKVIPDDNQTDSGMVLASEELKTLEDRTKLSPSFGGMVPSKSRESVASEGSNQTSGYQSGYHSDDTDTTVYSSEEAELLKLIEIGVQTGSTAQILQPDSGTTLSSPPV
Procedure: as §1

Chain of Ephrin type-A receptor 2 (P29317 whole entry): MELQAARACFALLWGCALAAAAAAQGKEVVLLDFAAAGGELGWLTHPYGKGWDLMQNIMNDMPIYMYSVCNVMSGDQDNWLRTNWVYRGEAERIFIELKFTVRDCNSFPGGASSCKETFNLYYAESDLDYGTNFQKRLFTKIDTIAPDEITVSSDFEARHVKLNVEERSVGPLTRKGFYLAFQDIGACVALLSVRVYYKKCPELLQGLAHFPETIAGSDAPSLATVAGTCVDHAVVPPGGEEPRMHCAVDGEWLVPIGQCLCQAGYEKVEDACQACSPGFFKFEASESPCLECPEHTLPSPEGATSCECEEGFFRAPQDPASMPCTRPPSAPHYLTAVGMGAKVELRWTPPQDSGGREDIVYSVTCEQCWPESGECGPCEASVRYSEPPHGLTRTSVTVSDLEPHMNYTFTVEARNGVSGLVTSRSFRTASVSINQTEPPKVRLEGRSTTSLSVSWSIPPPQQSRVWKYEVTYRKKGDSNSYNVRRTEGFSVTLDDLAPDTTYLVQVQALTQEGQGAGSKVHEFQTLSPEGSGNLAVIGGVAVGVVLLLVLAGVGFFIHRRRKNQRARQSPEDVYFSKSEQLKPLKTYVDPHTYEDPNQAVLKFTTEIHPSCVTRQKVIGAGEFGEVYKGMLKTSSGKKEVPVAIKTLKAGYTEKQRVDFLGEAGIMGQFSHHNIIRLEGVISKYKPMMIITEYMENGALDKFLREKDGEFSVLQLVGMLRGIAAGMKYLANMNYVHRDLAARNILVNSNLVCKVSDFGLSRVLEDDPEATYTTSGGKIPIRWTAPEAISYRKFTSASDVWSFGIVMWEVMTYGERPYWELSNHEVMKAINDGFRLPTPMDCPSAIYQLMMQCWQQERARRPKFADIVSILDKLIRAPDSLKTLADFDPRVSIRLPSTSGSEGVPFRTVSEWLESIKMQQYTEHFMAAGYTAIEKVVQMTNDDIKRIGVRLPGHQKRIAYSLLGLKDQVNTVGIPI
Procedure for Ephrin type-A receptor 2: as §1
Procedure for Ephrin type-B receptor 4: as §1

In the case of `CCN1CCCC1c1nc(COc2cc3ncnc(Nc4ccc(Cl)c(Cl)c4)c3cc2OC)cs1` (configuration not stated) [US9796704, Entry 256], the IC50 result was “in the range around 10500 nM” on Ephrin type-A receptor 2, “in the range around 525 nM” against Ephrin type-B receptor 4, “in the range around 10500 nM” in assay [1] and “in the range around 10500 nM” in assay [2].
Consider `C=CCCCCN1CCOC(COc2cc3ncnc(Nc4ccc(Cl)c(Cl)c4)c3cc2OC)C1` (configuration not stated) [US9796704, Entry 274], for which the IC50 entry (at Ephrin type-A receptor 2; on Ephrin type-B receptor 4; in assay [1]; in assay [2]) was “in the range around 10500 nM” each time.
As to `CCN1CCCC1c1noc(COc2cc3ncnc(Nc4ccc(Cl)c(Cl)c4)c3cc2OC)n1` (configuration not stated) [US9796704, Entry 255], the IC50 entry is “in the range around 10500 nM” against Ephrin type-A receptor 2, “in the range around 525 nM” against Ephrin type-B receptor 4, “in the range around 10500 nM” in assay [1] and “in the range around 10500 nM” in assay [2].
As to `COc1cc2c(Nc3ccc(Cl)c(Cl)c3)ncnc2cc1OC[C@@H]1CN2CCC[C@H]2CO1` [US9796704, Entry 34], the 50% inhibitory concentration (IC50) entry on Ephrin type-A receptor 2 was “in the range around 525 nM”; at Ephrin type-B receptor 4, “in the range around 525 nM”; in assay [1] it was under 50 nM; in assay [2], “in the range around 525 nM”.
On to `COc1cc2c(Nc3ccc(Br)c(Cl)c3F)ncnc2cc1OC[C@@H]1C[C@@H]2CN(S(C)(=O)=O)C[C@@H]2C1` [US9796704, Entry 6], for which the concentration for half-maximal inhibition (IC50) entry against Ephrin type-A receptor 2 was “in the range around 525 nM”; on Ephrin type-B receptor 4, under 50 nM; in assay [1], “in the range around 525 nM”; in assay [2] it was “in the range around 525 nM”.
On to `COc1cc2c(Nc3ccc(Cl)c(Cl)c3)ncnc2cc1OCc1cccc2nsnc12` [US9796704, Entry 159], for which the IC50 entry (against Ephrin type-A receptor 2; against Ephrin type-B receptor 4; in assay [2]) was “in the range around 525 nM” each time.
With `COc1cc2c(Nc3ccc(Cl)c(Cl)c3)ncnc2cc1OC[C@H]1CN2CCC[C@H]2CO1` [US9796704, Entry 35], the IC50 result (on Ephrin type-A receptor 2; at Ephrin type-B receptor 4; in assay [1]) was “in the range around 525 nM” in each case.
For `COc1cc2c(Nc3ccc(Cl)c(Cl)c3F)ncnc2cc1OC[C@H]1CN2CCOCC2CO1` (some centres not stated) [US9796704, Entry 29], the IC50 against Ephrin type-A receptor 2 is under 50 nM; against Ephrin type-B receptor 4, “in the range around 525 nM”; in assay [2], “in the range around 525 nM”.
Regarding `COC(=O)CCN1CCOC(COc2cc3ncnc(Nc4ccc(Cl)c(Cl)c4)c3cc2OC)C1` (configuration not stated) [US9796704, Entry 276], the concentration for half-maximal inhibition (IC50) result (against Ephrin type-A receptor 2; against Ephrin type-B receptor 4; in assay [1]; in assay [2]) was “in the range around 10500 nM” throughout.
As to `COc1cc2c(Nc3ccc(F)c(Cl)c3F)ncnc2cc1OCC1CO[C@@H]2[C@@H](OC)CO[C@H]12` (some centres not stated) [US9796704, Entry 45], the IC50 result (at Ephrin type-A receptor 2; against Ephrin type-B receptor 4; in assay [2]) was “in the range around 10500 nM” throughout.
In the case of `COc1cc2c(Nc3ccc(F)c(Cl)c3)ncnc2cc1O[C@@H]1CO[C@@H]2[C@H]1OC[C@H]2F` [US9796704, Entry 95], the IC50 result (on Ephrin type-A receptor 2; against Ephrin type-B receptor 4; in assay [2]) was “in the range around 525 nM” throughout.
As for `COc1cc2c(Nc3cccc(Cl)c3C)ncnc2cc1O[C@@H]1CO[C@@H]2[C@H]1OC[C@H]2F` [US9796704, Entry 110], the IC50 entry (against Ephrin type-A receptor 2; against Ephrin type-B receptor 4; in assay [2]) was “in the range around 525 nM” throughout.
`COc1cc2c(Nc3ccc(Cl)c(Cl)c3)ncnc2cc1OCc1c(C)cc(C)cc1C` [US9796704, Entry 178]: the IC50 result (at Ephrin type-A receptor 2; against Ephrin type-B receptor 4; in assay [2]) was “in the range around 10500 nM” throughout.
On to `COc1cc2c(Nc3ccccc3Br)ncnc2cc1O[C@@H]1CO[C@@H]2[C@H]1OC[C@H]2F` [US9796704, Entry 128], for which the IC50 entry (at Ephrin type-A receptor 2; at Ephrin type-B receptor 4; in assay [2]) was “in the range around 525 nM” throughout.
As for `COc1cc2c(Nc3ccc(Cl)c(Cl)c3F)ncnc2cc1OC[C@H]1C[C@@H]2CN(C)C[C@@H]2C1` [US9796704, Entry 9], the IC50 result (against Ephrin type-A receptor 2; against Ephrin type-B receptor 4; in assay [1]; in assay [2]) was “in the range around 525 nM” in each case.
With `COc1cc2c(Nc3ccccc3Cl)ncnc2cc1O[C@@H]1CO[C@@H]2[C@H]1OC[C@H]2F` [US9796704, Entry 112], the IC50 entry (against Ephrin type-A receptor 2; against Ephrin type-B receptor 4; in assay [2]) was “in the range around 525 nM” throughout.
On to `COc1cc2c(Nc3ccc(Br)c(Cl)c3F)ncnc2cc1OC[C@H]1CN2CCOCC2CO1` (some centres not stated) [US9796704, Entry 30], for which the figures for the IC50 (against Ephrin type-A receptor 2; on Ephrin type-B receptor 4; in assay [2]) were under 50 nM, under 50 nM and “in the range around 525 nM”, respectively.
As for `COc1cc2c(Nc3ccc(Cl)c(Cl)c3)ncnc2cc1OCc1noc(COCc2ccccc2)n1` [US9796704, Entry 211], the IC50 result (on Ephrin type-A receptor 2; against Ephrin type-B receptor 4; in assay [2]) was “in the range around 525 nM” each time.
Regarding `COc1cc2c(Nc3ccc(F)cc3Cl)ncnc2cc1O[C@@H]1CO[C@@H]2[C@H]1OC[C@H]2F` [US9796704, Entry 85], the IC50 result (at Ephrin type-A receptor 2; at Ephrin type-B receptor 4; in assay [2]) was “in the range around 525 nM” each time.
`COc1cc2c(Nc3cc(F)c(Oc4ccc(Cl)cc4)c(F)c3)ncnc2cc1O[C@@H]1CO[C@@H]2[C@H]1OC[C@H]2F` [US9796704, Entry 101]: the concentration for half-maximal inhibition (IC50) entry (on Ephrin type-A receptor 2; on Ephrin type-B receptor 4; in assay [2]) was “in the range around 525 nM” each time.
Take `COc1cc2c(Nc3ccc(Br)c(Cl)c3F)ncnc2cc1O[C@@H]1CO[C@@H]2[C@H]1OC[C@H]2F` [US9796704, Entry 102]: the IC50 result (against Ephrin type-A receptor 2; against Ephrin type-B receptor 4; in assay [2]) was “in the range around 525 nM” in each case.
In the case of `COc1cc2c(Nc3cccc(C(F)(F)F)c3F)ncnc2cc1O[C@@H]1CO[C@@H]2[C@H]1OC[C@H]2F` [US9796704, Entry 123], the IC50 result (at Ephrin type-A receptor 2; against Ephrin type-B receptor 4; in assay [2]) was “in the range around 525 nM” each time.
`COc1cc2c(Nc3ccc(Br)c(Cl)c3)ncnc2cc1O[C@H]1CO[C@@H]2[C@@H](OC)[C@@H](OC)O[C@@H]21` [US9796704, Entry 82]: the IC50 entry (on Ephrin type-A receptor 2; at Ephrin type-B receptor 4; in assay [2]) was “in the range around 525 nM” throughout.
For the molecule `COc1cc2c(Nc3ccc(Br)cc3)ncnc2cc1O[C@@H]1CO[C@@H]2[C@H]1OC[C@H]2F` [US9796704, Entry 130], the IC50 entry (against Ephrin type-A receptor 2; against Ephrin type-B receptor 4; in assay [2]) was “in the range around 525 nM” in each case.
For `COc1cc2c(Nc3ccc(Cl)c(Cl)c3)ncnc2cc1OCC1=CC2C(C(F)(F)F)=NN(C)C2S1` (configuration not stated) [US9796704, Entry 176], the IC50 result (on Ephrin type-A receptor 2; against Ephrin type-B receptor 4; in assay [2]) was “in the range around 525 nM” throughout.
On to `COc1ccc(-c2cc(COc3cc4ncnc(Nc5ccc(Cl)c(Cl)c5)c4cc3OC)on2)cc1` [US9796704, Entry 180], for which the 50% inhibitory concentration (IC50) entry (against Ephrin type-A receptor 2; on Ephrin type-B receptor 4; in assay [2]) was “in the range around 525 nM” throughout.
As to `COc1cc2c(Nc3ccc(Br)c(Cl)c3F)ncnc2cc1OC[C@@H]1CN2CCC[C@H]2CO1` [US9796704, Entry 37], the IC50 entry against Ephrin type-B receptor 4 is “in the range around 525 nM”; in assay [1], under 50 nM.
